Measured values as given in BigSolDB 2.1.

CC1=CC(=O)c2ccccc2C1=O
solubility (mole fraction)
Settings | in 1,2-dichloroethane | in acetone | in acetonitrile | in cyclohexane | in dichloromethane | in isopropanol | in methanol | in methyl acetate | in n-butanol | in n-propanol
278.15 K | 0.0879 | 0.0305 | 0.016 | – | 0.111 | 0.00291 | 0.00285 | 0.0427 | 0.00314 | 0.00343
283.15 K | 0.108 | 0.0381 | 0.0197 | 0.00329 | 0.128 | 0.00373 | 0.00335 | 0.0481 | 0.00417 | 0.00426
288.15 K | 0.12 | 0.0439 | 0.027 | 0.00417 | 0.148 | 0.0048 | 0.00396 | 0.0595 | 0.0057 | 0.00564
293.15 K | 0.142 | 0.0534 | 0.0326 | 0.00514 | 0.169 | 0.00588 | 0.00484 | 0.0718 | 0.00742 | 0.00685
298.15 K | 0.159 | 0.0669 | 0.0403 | 0.00673 | 0.193 | 0.00764 | 0.00606 | 0.0854 | 0.00994 | 0.00838
303.15 K | 0.187 | 0.0809 | 0.0491 | 0.00848 | 0.219 | 0.0096 | 0.00709 | 0.105 | 0.0127 | 0.01
308.15 K | 0.21 | 0.0983 | 0.0609 | 0.0103 | 0.247 | 0.0122 | 0.00827 | 0.12 | 0.0169 | 0.0122
313.15 K | 0.243 | 0.118 | 0.0737 | 0.0131 | 0.277 | 0.0153 | 0.00975 | 0.148 | 0.0223 | 0.0143
